Data: patent US7786152B2, “Compound” (priority 2002, dated 2010)

Target: T1, 11 β-HSD type 2 (Rattus norvegicus, UniProt P50233)
T1 construct: Both the kidneys and livers were homogenised on ice in PBS-sucrose buffer; tissue Harlan Olac (rats); host or cells: Wistar rat kidney homogenate supernatant
T1 sequence (P50233 1-400): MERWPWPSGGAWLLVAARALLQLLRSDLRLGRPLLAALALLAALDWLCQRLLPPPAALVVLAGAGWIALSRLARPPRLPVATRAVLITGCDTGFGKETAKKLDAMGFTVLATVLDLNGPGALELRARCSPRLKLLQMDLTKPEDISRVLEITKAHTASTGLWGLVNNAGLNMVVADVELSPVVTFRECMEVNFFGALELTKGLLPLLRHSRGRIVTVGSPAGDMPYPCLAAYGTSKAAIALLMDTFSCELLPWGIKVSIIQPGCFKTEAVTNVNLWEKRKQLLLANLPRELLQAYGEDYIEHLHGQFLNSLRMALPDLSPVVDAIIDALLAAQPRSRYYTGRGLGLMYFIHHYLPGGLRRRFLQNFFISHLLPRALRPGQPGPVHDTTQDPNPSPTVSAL
Assay: 11 β-HSD type 2 inhibition, rat kidney homogenate, conversion F to E (radiometric TLC)
Type: biochemical
Conditions: read-out: % inhibition of 11β HSD2 @ 10 μM, typical sd ± 5%, means n=2
Protocol: Enzymes—Rat livers and rat kidneys were obtained from normal Wistar rats (Harlan Olac, Bicester, Oxon, UK). Both the kidneys and livers were homogenised on ice in PBS-sucrose buffer (1 g/10 ml) using an Ultra-Turrax. After the livers and kidneys were homogenised the homogenate was centrifuged for five minutes at 4000 rpm. The supernatant obtained was removed and stored in glass vials at −20° C. The amount of protein per μl of rat liver and kidney cytosol was determined using the Bradford method.
The same procedure was used for the 11 β-HSD type 2 assay, the conversion F to E, to determine the amount of rat kidney to be used and the incubation time. Except this time the substrate solution contained ^3H—F and unlabelled F and the recovery contained ^14C-E and unlabelled E and cortisone has a Rf value of 0.65 on the TLC-plate.
In these assays the influence of different inhibitors on the 11 β-HSD activity both in reductive (type 1) and oxidative (type 2) directions were assessed. In the reductive direction E is the substrate and F the product and visa versa in the case of oxidation. The method described here is for the oxidative direction.
The substrate solution contained about 50,000 cpm/ml ^3H—F in PBS-sucrose and 0.5 μM F. 1 ml of the substrate solution was added to each tube, the inhibitors were also added, at a 10 μM concentration, to each tube except to the “control” and “blank” tubes. 150 μL was added to all tubes except to the blanks, this was done to correct for the amount of ^3H—F spontaneously formed. The tubes were incubated for 60 minutes in a mechanically shaken water bath at 37° C. The amount of kidney liver homogenate and incubation time used resulted from the enzyme- and time-dependency assay. After incubation 50 μL of recovery was added to correct for the losses made in the next steps, containing 5000 cpm/50 μL of ^14C-E and 50 μg/50 μL of unlabelled E (to visualise the spot on the TLC-plate). The aqueous mixture was then extracted with 4 ml of ether (2×30 sec cycle, vortex mix). After freezing the aqueous phase, the ether (upper) layer was decanted into smaller tubes and evaporated at 45° C. until completely dry. The residue was then re-dissolved in 6 drops of ether and transferred to a TLC-plate. The TLC-plate was developed in chloroform:methanol (9:1 v/v) solvent system, the TLC-plate ran for about 90 minutes until the solvent front had moved about 18 cm. The position of the product E was visualised under UV-light and cut out from the TLC-plate and put into scintillation vials. Radioactivity was eluted over 5 minutes with 0.5 ml methanol. 0.5 ml of PBS-sucrose and 10 ml of Ecoscint were then added and vortex mixed before counting in the scintillation counter. Before counting the samples, two total activity vials were prepared. These contained 0.5 ml of the substrate solution, 50 μL of the recovery, 0.5 ml of methanol and 10 ml of Ecoscint. These two total activity vials were needed to determine the amount of ^14C-E and ^3H—F added in the beginning to make the calculations.
To look at the percentage of inhibition four different concentrations, 1, 5, 10 and 20 μM, were used. The method for both the rat liver, type 1 the reductive, and rat kidney, type 2 the oxidative, stay the same throughout the entire experiment.
In this experiment the amount of rat liver homogenate and rat kidney homogenate added to each tube and the incubation time was determined. […] After drawing the graphs the optimal amount of rat liver cytosol and rat kidney cytosol and both their incubation times were selected. One important rule when selecting both variables, to select an amount of rat liver and rat kidney and incubation time on a linear part of the graph. This is done to avoid fluctuations in enzyme activity. The amount of rat liver cytosol selected was 25 μL and 90 minutes of incubation time, the amount of rat kidney cytosol selected was 150 μL and 60 minutes of incubation time. […]

CCSc1nc2ccc(NS(=O)(=O)c3cccc(Cl)c3C)cc2s1 [compound 751]
inhibition at 10 µM: 5%

Cc1nc2cc(NS(=O)(=O)c3ccc(Br)cc3C)ccc2s1 [compound 523]
inhibition at 10 µM: 8%

Cc1nc2cc(NS(=O)(=O)c3cccc4cccnc34)ccc2s1 [compound 552]
inhibition at 10 µM: 24%

Cc1nc2cc(NS(=O)(=O)c3ccc(Cl)cc3Cl)ccc2s1 [compound 412]
inhibition at 10 µM: 3%

Cc1nc2cc(NS(=O)(=O)c3cccc(Cl)c3C)ccc2s1 [compound 413]
inhibition at 10 µM: 0.2%

Cc1nc2cc(NS(=O)(=O)c3ccc(C(C)C)cc3)ccc2s1 [compound 704]
inhibition at 10 µM: 4%

COc1cc(C)ccc1S(=O)(=O)Nc1ccc2sc(C)nc2c1 [compound 584]
inhibition at 10 µM: 10%

Cc1nc2cc(NS(=O)(=O)c3c(C)c(C)c(C)c(C)c3C)ccc2s1 [compound 710]
inhibition at 10 µM: 10%

Cc1nc2cc(NS(=O)(=O)c3c(Cl)cc(Cl)cc3Cl)ccc2s1 [compound 522]
inhibition at 10 µM: 6%

COc1ccc(S(=O)(=O)Nc2ccc3sc(C)nc3c2)cc1 [compound 424]
inhibition at 10 µM: 0.7%

Cc1nc2cc(NS(=O)(=O)c3c(C)cccc3Cl)ccc2s1 [compound 425]
inhibition at 10 µM: 0%

Cc1nc2cc(N(C)S(=O)(=O)c3cccc(Cl)c3C)ccc2s1 [compound 469]
inhibition at 10 µM: 29%

CC(=O)c1ccccc1S(=O)(=O)Nc1ccc2sc(C)nc2c1 [compound 701]
inhibition at 10 µM: 36%

Cc1nc2cc(NS(=O)(=O)c3c(C(C)C)cc(C(C)C)cc3C(C)C)ccc2s1 [compound 703]
inhibition at 10 µM: 4%

Cc1nc2cc(NS(=O)(=O)c3cc(Cl)ccc3Cl)ccc2s1 [compound 580]
inhibition at 10 µM: 1.4%

CCCc1ccc(S(=O)(=O)Nc2ccc3sc(C)nc3c2)cc1 [compound 421]
inhibition at 10 µM: 0.9%

Cc1nc2cc(NS(=O)(=O)c3ccc4c(c3)CN(C(=O)C(F)(F)F)CC4)ccc2s1 [compound 581]
inhibition at 10 µM: 32%

Cc1nc2cc(NS(=O)(=O)c3cccc4ccccc34)ccc2s1 [compound 553]
inhibition at 10 µM: 18%

Cc1nc2cc(NS(=O)(=O)c3ccc(C(C)(C)C)cc3)ccc2s1 [compound 709]
inhibition at 10 µM: 13%

Cc1nc2cc(NS(=O)(=O)c3ccc(-c4ccccc4)cc3)ccc2s1 [compound 521]
inhibition at 10 µM: 5%

Cc1nc2cc(NS(=O)(=O)c3cccc4c(N(C)C)cccc34)ccc2s1 [compound 554]
inhibition at 10 µM: 43%

COC(=O)c1ccccc1S(=O)(=O)Nc1ccc2sc(C)nc2c1 [compound 705]
inhibition at 10 µM: 6%

Cc1nc2cc(NS(=O)(=O)c3ccc(Br)cc3)ccc2s1 [compound 519]
inhibition at 10 µM: 8%

COc1c(C)c(C)c(S(=O)(=O)Nc2ccc3sc(C)nc3c2)c(C)c1C [compound 708]
inhibition at 10 µM: 11%

Cc1nc2cc(NS(=O)(=O)c3ccccc3C#N)ccc2s1 [compound 583]
inhibition at 10 µM: 0.4%

Cc1nc2cc(NS(=O)(=O)c3ccc(Oc4ccccc4)cc3)ccc2s1 [compound 585]
inhibition at 10 µM: 1.6%

CCN(c1ccc2sc(C)nc2c1)S(=O)(=O)c1cccc(Cl)c1C [compound 470]
inhibition at 10 µM: 30%

COc1ccc(Cl)cc1S(=O)(=O)Nc1ccc2sc(C)nc2c1 [compound 582]
inhibition at 10 µM: 0.7%
